1 compound from ChEMBL document CHEMBL1145302, “Synthesis and antibacterial activity of C6-carbazate ketolides” (2006) can be followed below.

Molecules are shown by their SMILES. In brackets after ≈: the same amount, converted by molar mass.

Holding throughout (type): functional
The test system of assay [1] is Streptococcus pneumoniae. The assay is described as follows: Antibacterial activity against erythromycin-resistant Streptococcus pneumoniae OC4051 containing erm(B).
For assay [2], the system named is Staphylococcus aureus. The assay is described as follows: Antibacterial activity against erythromycin-susceptible Staphylococcus aureus Smith OC4172.
Assay [3] has as its system Streptococcus pneumoniae. The experiment in a line: Antibacterial activity against erythromycin-susceptible Streptococcus pneumoniae OC9132.
The subject of assay [4] is Staphylococcus haemolyticus. The experiment in a line: Antibacterial activity against erythromycin resistant Staphylococcus haemolyticus OC3882 containing erm(C).
Assay [5] concerns Staphylococcus aureus. The assay is described as follows: Antibacterial activity against Staphylococcus aureus Smith infected in orally dosed Swiss Webster mouse septicemia model. Particulars: po.
The subject of assay [6] is Haemophilus influenzae. The experiment in a line: Antibacterial activity against telithromycin-susceptible Haemophilus influenzae ATCC 49766.
The test system of assay [7] is Streptococcus pneumoniae. The assay is described as follows: Antibacterial activity against erythromycin-resistant Streptococcus pneumoniae OC4421 containing mef(A).
Assay [8] deals with Staphylococcus aureus. The assay is described as follows: Antibacterial activity against erythromycin-susceptible Staphylococcus aureus Smith OC4172 in presence of 50% mouse serum.
In assay [9] the test system is Staphylococcus aureus. The assay is described as follows: Antibacterial activity against Staphylococcus aureus Smith infected in sc dosed Swiss Webster mouse septicemia model.

In general, ED50 refers to the dose at which the effect has come halfway, by size or by number of responders. Read a low ED50 as an effect at a small dose. Turning to `CC[C@H]1OC(=O)[C@H](C)C(=O)[C@H](C)[C@@H](O[C@@H]2O[C@H](C)C[C@H](N(C)C)[C@H]2O)[C@](C)(OC)C[C@@H](C)C(=O)[C@H](C)[C@H]2N(CCCCn3cnc(-c4cccnc4)c3)C(=O)O[C@]12C` [TELITHROMYCIN], the MIC in assay [1] is 0.06 µg/mL (≈ 0.0739 µM); in assay [2], 0.25 µg/mL (≈ 0.308 µM); in assay [3], 0.06 µg/mL (≈ 0.0739 µM); in assay [4], 0.25 µg/mL (≈ 0.308 µM); in [6], 1 µg/mL (≈ 1.23 µM); in assay [7], 0.12 µg/mL (≈ 0.148 µM). In assay [8], the MIC was 0.5 µg/mL. The ED50 is above 20 mg/kg in [5] and 4.3 mg/kg in assay [9].
